The source of these data is article PMC8957573 (Journal of Natural Products, 2022).

The target of this assay is T1, TAK1 (Homo sapiens, UniProt O43318).
T1 sequence (O43318 1-303 limits assumed): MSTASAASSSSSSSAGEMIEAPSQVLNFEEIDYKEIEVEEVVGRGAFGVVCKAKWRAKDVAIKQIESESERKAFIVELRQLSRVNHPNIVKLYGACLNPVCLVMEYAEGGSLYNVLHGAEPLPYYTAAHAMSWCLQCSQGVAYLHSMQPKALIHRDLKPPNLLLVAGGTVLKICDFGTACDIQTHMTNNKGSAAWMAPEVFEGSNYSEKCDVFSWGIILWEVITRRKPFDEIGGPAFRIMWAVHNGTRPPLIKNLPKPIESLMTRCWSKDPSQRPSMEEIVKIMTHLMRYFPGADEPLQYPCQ
The assay is described as follows: TAK1 inhibition assay. In kind it is biochemical. The settings on record: cis-enone RALs.

With `COc1cc(O)c2c(c1)[C@H]1O[C@@H]1C[C@H](O)[C@H](O)C(=O)/C=C\C[C@H](C)OC2=O` [Hypothemycin (1), Hypothemycin], the “Inhibitory activity against TAK1 (in words)” value was “inhibit TAK1”.
